# Key:
# human CRTH2 = target: T1, human CRTH2 (Homo sapiens, UniProt Q9Y5Y4); experiment: Human CRTH2 Receptor Binding Assay (whole cell, [3H]ramatroban competition); conditions: CHO-K1 cells expressing human CRTH2 and G-alpha16; 20 nM [3H]ramatroban; 1 hour, room temperature
# T1 construct: expressed in transfected cells
# T1 sequence (Q9Y5Y4 1-395): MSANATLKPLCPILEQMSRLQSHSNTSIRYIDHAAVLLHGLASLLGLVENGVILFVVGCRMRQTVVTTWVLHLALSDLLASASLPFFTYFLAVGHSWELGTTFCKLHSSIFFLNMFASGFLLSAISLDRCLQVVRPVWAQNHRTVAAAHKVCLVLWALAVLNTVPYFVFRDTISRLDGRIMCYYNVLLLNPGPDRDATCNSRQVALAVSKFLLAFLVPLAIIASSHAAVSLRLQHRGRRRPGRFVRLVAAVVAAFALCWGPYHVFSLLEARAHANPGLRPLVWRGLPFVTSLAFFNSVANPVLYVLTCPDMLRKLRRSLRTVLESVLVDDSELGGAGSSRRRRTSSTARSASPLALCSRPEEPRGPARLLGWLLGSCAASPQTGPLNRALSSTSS
# Description: A whole cell receptor binding assay using [^3H]ramatroban as the competing radioactive ligand was employed to evaluate the compound binding activity to human CRTH2. The radioactive ligand [^3H]ramatroban was synthesized according to Sugimoto et. al. (Eur. J. Pharmacol. 524, 30-37, 2005) to a specific activity of 42 Ci/mmol.
# A cell line stably expressing human CRTH2 was established by transfecting CHO-K1 cells with two mammalian expression vectors that harbored human CRTH2 and G-alpha16 cDNAs, respectively, using FuGene® 6 transfection reagent (from Roche). Stable clones expressing CRTH2 were selected by staining each clone with BM16 (BD Pharmingen™ from BD Biosciences, a division of Becton, Dickinson and Company), which is a rat monoclonal antibody to human CRTH2. The cells were maintained as monolayer cultures in Ham's F-12 medium containing 10% fetal bovine serum, 100 units/mL penicillin, […] streptomycin, 2 mM glutamine, 0.5 mg/mL G418 (geneticin) for CRTH2, and 0.2 mg/mL hygromycin-B (for G-alpha 16). For whole cell receptor binding assay, the monolayer cells were rinsed once with PBS (phosphate buffered saline), dissociated using diammonium ethylenediaminetetraacetate (Versene™ EDTA from the Dow Chemical Company), and suspended in PBS containing 10 mM MgCl2 and 0.06% BSA (bovine serum albumin) at 1.5×10^6 cells/mL.
# The binding reactions (0.2 mL) were performed in 96-well plates at room temperature in PBS containing 1.5×10^5 cells, 10 mM MgCl2, 0.06% BSA, 20 nM [^3H]ramatroban, and test compound at various concentrations. After 1 hour of binding reactions, the cells were harvested on GF™/B filter microplates (microtiter plates with embedded glass fiber from PerkinElmer, Inc.) and washed 5 times with PBS using a Filtermate™ Harvester (a cell harvester that harvests and washes cells from microplates from PerkinElmer, Inc.). The radioactivities bound to the cells were determined using a microplate scintillation counter (TopCount® NXT, from PerkinElmer, Inc.) after adding 50 μL of Microscint™ 20 scintillation fluid (from PerkinElmer, Inc.) to each well of the filter plates. The radioactivity from non-specific binding was determined by replacing compound with 10 μM of 15(R)-15-methyl PGD2 (from Cayman Chemical Company) in the reaction mixtures. The radioactivity bound to the cells in the absence of compound (total binding) was determined by replacing compound with 0.25% of DMSO (dimethyl sulfoxide) in the reaction mixture. Specific binding data were obtained by subtracting the radioactivity of non-specific binding from each binding data.
# The IC50 value is defined as the concentration of the tested compound that is required for 50% inhibition of total specific binding. In order to calculate the IC50 value, the percent inhibition data were determined for 7 concentrations for each compound. The percent inhibition for a compound at each concentration was calculated according to the following formula, [1-(specific binding in the presence of compound)/(total specific binding)]×100. The IC50 value was then obtained by fitting the percent inhibition data to a sigmoidal dose-response (4 parameter logistic) model in the XLfit® software Excel add-in program [from ID Business Solutions Ltd., model 205, where F(x)=(A+(B−A)/(1+((C/x)^D)))].
# [1] = tested on: DK-PGD2-induced IL-13 production in T helper type 2 (Th2) cells; experiment: DK-PGD2-Induced IL-13 Production Assay in Th2 Cells; format: cell-based; conditions: human Th2 cells, 500 nM DK-PGD2, 4 hrs at 37° C., ELISA; unit inferred; read-out: IC50 of inhibiting IL-13 production (values greater than 10)
# Protocol: Inhibition of 13,14-dihydro-15-keto Prostaglandin D2 (DK-PGD2)-induced IL-13 production in T helper type 2 (Th2) cells was applied to evaluate compound cellular potency.
# Cultures of Th2 cells were established from blood of healthy human volunteers according to the following procedure. Peripheral blood mononuclear cells (PBMC) were first isolated from 50 mL of fresh blood by Ficoll-Hypaque density gradient centrifugation, followed by CD4^+ cell purification using a CD4^+ T Cell Isolation Kit II (from Miltenyi Biotec Inc.). The CD4^+ T cells were then differentiated to Th2 cells by culturing the cells in X-VIVO 15® medium (from Cambrex BioScience Walkersville Inc.) containing 10% human AB serum (serum of blood type AB from Invitrogen Corporation), 50 U/mL of recombinant human interleukin-2 (rhIL-2) (from PeproTech Inc.) and 100 ng/mL of recombinant human interleukin-4 (rhIL-4) (from PeproTech Inc.) for 7 days. The Th2 cells were isolated using a CD294 (CRTH2) MicroBead Kit (from Miltenyi Biotec Inc.) and amplified in X-VIVO 15® medium containing 10% human AB serum and 50 U/mL of rhIL-2 for 2 to 5 weeks. In general, 70% to 80% of the Th2 cells used in the assay are CRTH2-positive when analyzed by fluorescence-activated cell sorting using the BM16 antibody (as previously described) conjugated to phycoerythrin (PE).
# The spontaneous production of IL-13 by Th2 cells was determined in the absence of DK-PGD2 stimulation and the value was subtracted from that in the presence of each compound for percent inhibition and IC50 calculations.
# The percent inhibition of interleukin 13 (IL-13) production for a compound at various concentrations was calculated according to the following formula, [1-(IL-13 production in the presence of compound)/(IL-13 production in the presence of 0.15% DMSO)]×100. The IC50 value, defined as the concentration of a compound that is required for 50% inhibition of IL-13 production, was calculated by fitting the percent inhibition data for 7 concentrations to a sigmoidal dose-response (4 parameter logistic) model in the XLfit® software Excel add-in program [ID Business Solutions Ltd., model 205, where F(x)=(A+(B−A)/(1+((C/x)^D)))].
Structure (SMILES),IC50 (human CRTH2) [nM],IC50 [1] [nM]
"Cc1ccc2c(c1OCC(=O)O)CCCC2N(C)S(=O)(=O)c1cc(C(F)(F)F)cc(C(F)(F)F)c1 (stereo not shown) [Example 2-2, {5-[(3,5-Bis-trifluoromethyl-benzenesulfonyl)-methyl-amino]-2-methyl-5,6,7,8-tetrahydro-naphthalen-1-yloxy}-acetic acid]",311,> 10000
"CN(C1CCCc2c1cc(Cl)c(F)c2OCC(=O)O)S(=O)(=O)c1cc(Cl)ccc1Cl (stereo not shown) [Example 2-9, {3-Chloro-5-[(2,5-dichloro-benzenesulfonyl)-methyl-amino]-2-fluoro-5,6,7,8-tetrahydro-naphthalen-1-yloxy}-acetic acid]",1160,
"CN(C1CCCc2c(OCC(=O)O)cc(Cl)cc21)S(=O)(=O)c1cc(Cl)ccc1Cl (stereo not shown) [Example 2-10, {3-Chloro-5-[(2,5-dichloro-benzenesulfonyl)-methyl-amino]-5,6,7,8-tetrahydro-naphthalen-1-yloxy}-acetic acid]",859,
"CN(C1CCCc2c1cc(Cl)c(F)c2OCC(=O)O)S(=O)(=O)c1ccc(Cl)cc1Cl (stereo not shown) [Example 2-11, {3-Chloro-5-[(2,4-dichloro-benzenesulfonyl)-methyl-amino]-2-fluoro-5,6,7,8-tetrahydro-naphthalen-1-yloxy}-acetic acid]",536,> 10000
CN(C1CCCc2c1ccc(F)c2OCC(=O)O)S(=O)(=O)c1cc(C(F)(F)F)cc(C(F)(F)F)c1 (stereo not shown) [Example 2-17],199,
"CN(C1CCCc2c1cc(F)c(F)c2OCC(=O)O)S(=O)(=O)c1ccc(Cl)cc1Cl (stereo not shown) [Example 2-18, {5-[(2,4-Dichloro-benzenesulfonyl)-methyl-amino]-2,3-difluoro-5,6,7,8-tetrahydro-naphthalen-1-yloxy}-acetic acid]",2520,
"CN(C1CCCc2c(OCC(=O)O)cc(F)cc21)S(=O)(=O)c1cc(Cl)ccc1Cl (stereo not shown) [Example 2-19, {55-[(2,5-Dichloro-benzenesulfonyl)-methyl-amino]-3-fluoro-5,6,7,8-tetrahydro-naphthalen-1-yloxy}-acetic acid]",2640,
"CN(C1CCCc2c1cc(F)c(F)c2OCC(=O)O)S(=O)(=O)c1cc(Br)cc(C(F)(F)F)c1 (stereo not shown) [Example 2-20, {5-[(3-Bromo-5-trifluoromethyl-benzenesulfonyl)-methyl-amino]-2,3-difluoro-5,6,7,8-tetrahydro-naphthalen-1-yloxy}-acetic acid]",288,
"CN(C1CCCc2c1cc(F)c(F)c2OCC(=O)O)S(=O)(=O)c1cc(Cl)ccc1Cl (stereo not shown) [Example 2-21, {5-[(2,5-Dichloro-benzenesulfonyl)-methyl-amino]-2,3-difluoro-5,6,7,8-tetrahydro-naphthalen-1-yloxy}-acetic acid]",2100,
"CN(C1CCCc2c1cc(F)c(F)c2OCC(=O)O)S(=O)(=O)c1cc(F)cc(C(F)(F)F)c1 (stereo not shown) [Example 2-24, {2,3-Difluoro-5-[(3-fluoro-5-trifluoromethyl-benzenesulfonyl)-methyl-amino]-5,6,7,8-tetrahydro-naphthalen-1-yloxy}-acetic acid]",380,

# Other lines, results leading:
IC50 (human CRTH2) [nM],IC50 [1] [nM],Structure (SMILES)
195,> 10000,"CC(C)c1ccc2c(c1OCC(=O)O)CCCC2NS(=O)(=O)c1cc(C(F)(F)F)cc(C(F)(F)F)c1 (stereo not shown) [Example 1-2, [5-(3,5-Bis-trifluoromethyl-benzenesulfonyl-amino)-2-isopropyl-5,6,7,8-tetrahydro-naphthalen-1-yloxy]-acetic acid]"
177,> 10000,"CCc1ccc2c(c1OCC(=O)O)CCCC2N(C)S(=O)(=O)c1cc(C(F)(F)F)cc(C(F)(F)F)c1 (stereo not shown) [Example 2-3, {5-[(3,5-Bis-trifluoromethyl-benzenesulfonyl)-methyl-amino]-2-ethyl-5,6,7,8-tetrahydro-naphthalen-1-yloxy}-acetic acid]"
12.3,,"CN(C1CCCc2c1cc(Cl)c(F)c2OCC(=O)O)S(=O)(=O)c1cc(Br)cc(C(F)(F)F)c1 (stereo not shown) [Example 2-12, {5-[(3-Bromo-5-trifluoromethyl-benzenesulfonyl)-methyl-amino]-3-chloro-2-fluoro-5,6,7,8-tetrahydro-naphthalen-1-yloxy}-acetic acid]"
6.2,,"CN(C1CCCc2c(OCC(=O)O)cc(Cl)cc21)S(=O)(=O)c1cc(Br)cc(C(F)(F)F)c1 (stereo not shown) [Example 2-13, {5-[(3-Bromo-5-trifluoromethyl-benzenesulfonyl)-methyl-amino]-3-chloro-5,6,7,8-tetrahydro-naphthalen-1-yloxy}-acetic acid]"
11.2,,"CN(C1CCCc2c(OCC(=O)O)cc(Cl)cc21)S(=O)(=O)c1cc(F)cc(C(F)(F)F)c1 (stereo not shown) [Example 2-14, {3-Chloro-5-[(3-fluoro-5-trifluoromethyl-benzenesulfonyl)-methyl-amino]-5,6,7,8-tetrahydro-naphthalen-1-yloxy}-acetic acid]"
14.1,,"CN(C1CCCc2c1cc(Cl)c(F)c2OCC(=O)O)S(=O)(=O)c1cc(F)cc(C(F)(F)F)c1 (stereo not shown) [Example 2-15, {3-Chloro-2-fluoro-5-[(3-fluoro-5-trifluoromethyl-benzenesulfonyl)-methyl-amino]-5,6,7,8-tetrahydro-naphthalen-1-yloxy}-acetic acid]"
5.4,,"CN(C1CCCc2c(OCC(=O)O)cc(F)cc21)S(=O)(=O)c1cc(Br)cc(C(F)(F)F)c1 (stereo not shown) [Example 2-22, {5-[(3-Bromo-5-trifluoromethyl-benzenesulfonyl)-methyl-amino]-3-fluoro-5,6,7,8-tetrahydro-naphthalen-1-yloxy}-acetic acid]"
198,,"CN(C1CCCc2c(OCC(=O)O)cc(F)cc21)S(=O)(=O)c1cc(F)cc(C(F)(F)F)c1 (stereo not shown) [Example 2-23, {3-Fluoro-5-[(3-fluoro-5-trifluoromethyl-benzenesulfonyl)-methyl-amino]-5,6,7,8-tetrahydro-naphthalen-1-yloxy}-acetic acid]"

# From US8263656B2 (Hoffmann-La Roche Inc., priority 2008, dated 2012)
